The text below walks through data of publication PMC5071873, “The Effects of Puerarin on Rat Ventricular Myocytes and the Potential Mechanism” (Scientific Reports, 2016).

The subject of the assay is intracellular cAMP. Kind of assay: Mouse/Rat cAMP assay in rat cardiomyocytes. It counts as cell-based. Conditions: puerarin 1 mM. How it is done:
cAMP levels were measured in rat cardiomyocytes using a Mouse/Rat cAMP kit (cAMP parameter assay kit, R&D Systems) according to the manufacturer’s instructions. The assay is based on the competitive binding technique. A streptavidin-coated plate is incubated with a biotinylated monoclonal antibody specific for cAMP. Following a wash to remove excess monoclonal antibody, cAMP present in a sample competes with a fixed amount of horseradish peroxidase (HRP)-labeled cAMP for sites on the monoclonal antibody. This is followed by another wash to remove excess conjugate and unbound sample. A substrate solution is added to the wells to determine the bound enzyme activity. The color development is stopped and the absorbance is read at 450 nm. The intensity of the color is inversely proportional to the concentration of cAMP in the sample. The level of cAMP in the sample was determined based on a standard curve and expressed as pmol/mg per each sample. Normalized cAMP was calculated by compared with the control group. In our study, we investigate the effect of puerarin on intracellular cAMP concentration and its effect upon the increase of cAMP induced by isoproterenol, forskolin and 8-Br-cAMP.
(cAMP levels reflect the balance of adenylyl cyclase and phosphodiesterase activity.)

As for `O=c1c(-c2ccc(O)cc2)coc2c([C@@H]3O[C@H](CO)[C@@H](O)[C@H](O)[C@H]3O)c(O)ccc12` [Puerarin, 8-c-glucoside of daidzein], where the note is “rat cardiac myocytes”, the “effect upon the increase of cAMP induced by isoproterenol, forskolin” value is “no effect”. In addition, where the note is “rat cardiac myocytes (text: also HEK293 transfected Kv7.1/IKs)”, the “effect on intracellular cAMP concentration” value is recorded as “no effect”.
